Measured values as given in publication PMC12498190, “A Photocaged N‐Phosphonopiperidinone as a Selective Photo‐Cleavable DPP8/9 Inhibitor” (Chembiochem, 2025).
Where two headings read alike, the source gives them in different places.

What was measured:
human DPP8 = molecular target: T1, human DPP8 (Homo sapiens, UniProt Q6V1X1); assay: DPP8 enzyme inhibition assay, AMC release from GP-AMC; format: biochemical; settings: for IC50: 45 min pre-incubation, read-out: Apparent IC50
T1 construct: purchased Proteros Biostructures GmbH, Germany
T1 sequence (Q6V1X1 whole entry): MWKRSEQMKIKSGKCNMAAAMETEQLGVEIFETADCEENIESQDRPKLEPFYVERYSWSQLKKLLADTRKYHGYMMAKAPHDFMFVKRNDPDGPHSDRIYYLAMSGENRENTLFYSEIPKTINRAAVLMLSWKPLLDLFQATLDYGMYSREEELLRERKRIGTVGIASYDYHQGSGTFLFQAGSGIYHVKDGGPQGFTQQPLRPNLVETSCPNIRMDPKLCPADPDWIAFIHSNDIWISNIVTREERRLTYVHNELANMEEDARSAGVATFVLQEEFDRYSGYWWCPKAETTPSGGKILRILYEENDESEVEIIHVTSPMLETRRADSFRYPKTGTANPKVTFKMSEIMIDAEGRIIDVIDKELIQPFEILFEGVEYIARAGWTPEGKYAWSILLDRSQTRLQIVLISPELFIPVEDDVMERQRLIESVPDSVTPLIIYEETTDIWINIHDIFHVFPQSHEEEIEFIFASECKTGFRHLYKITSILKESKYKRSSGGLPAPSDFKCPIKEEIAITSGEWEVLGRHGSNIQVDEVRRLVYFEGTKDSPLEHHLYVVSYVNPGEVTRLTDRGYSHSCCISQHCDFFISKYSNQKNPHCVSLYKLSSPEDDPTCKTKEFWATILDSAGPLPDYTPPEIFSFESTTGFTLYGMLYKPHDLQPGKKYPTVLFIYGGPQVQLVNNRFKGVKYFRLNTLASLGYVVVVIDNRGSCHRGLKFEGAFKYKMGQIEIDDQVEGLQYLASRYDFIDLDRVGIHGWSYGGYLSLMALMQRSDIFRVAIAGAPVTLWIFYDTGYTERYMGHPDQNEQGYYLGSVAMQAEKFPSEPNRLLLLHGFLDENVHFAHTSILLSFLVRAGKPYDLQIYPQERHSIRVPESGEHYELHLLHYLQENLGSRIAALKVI
Source text: (§1) We then continued to investigate the biochemical properties of the photocaged compound 5 versus the photoreleased product resembling inhibitor 1. To this end, we performed biochemical enzyme inhibition assays with DPP8 and DPP9 before and after irradiation of 5. Resulting DPP8/9 inhibition was quantified by following the DPP8‐ or DPP9‐mediated proteolysis of the fluorophore 7‐amino‐4‐methylcoumarin (AMC) from the model substrate Gly‐Pro‐AMC (Figure 1C,D and Table 1 ). To induce photocleavage of 5, reaction mixtures were irradiated for 5 min with the same green LED lamp as before, followed by a pre‐incubation of 45 min with the photoreleased inhibitor prior to substrate addition.
(§2) Enzyme activity of human DPP4, DPP8, and DPP9 (Proteros Biostructures GmbH, Germany) was determined by measuring the initial velocity of AMC release from the fluorogenic substrate GP‐AMC (Sigma Aldrich, USA) using a Tecan Spark 10 M multimode microplate reader (Tecan Group Ltd., Switzerland) in activity buffer (20 mM HEPES/KOH pH 7.3, 110 mM potassium acetate, 2 mM magnesium acetate, 0.5 mM EGTA, 0.02% Tween 20, supplemented with 1 mM DTT) and a final volume of 20 μL for maximal 30 min at 30 °C. Prior to the activity measurement, 10 nM of the corresponding enzyme was incubated for 45 min at 30 °C and gentle shaking with the indicated compounds at concentrations ranging from 0 to 100 μM, followed by irradiation with a green LED lamp (λ = 520−530 nm; Eurolite, Germany) for 5 min. The corresponding compounds were dissolved in DMSO and diluted in activity buffer (final DMSO concentration: 1%). To the inhibitor–enzyme mixture, GP‐AMC was then added to a final concentration of 250 μM, and the activity measurement was started. The resulting enzyme activity was calculated from the slope (fluorescence release over time) and plotted against the concentrations of the inhibitor. Apparent IC50 values were calculated using Graph‐Pad Prism v10.4.1 using the equation: [Inhibitor] versus response‐Variable slope (four parameters). All measurements were performed in triplicate, and error bars represent standard errors of the fit.

DPP9 [1] = molecular target: T2, DPP9 (Homo sapiens, UniProt Q86TI2); assay: DPP9 enzyme inhibition assay, AMC release from GP-AMC; format: biochemical; design: purchased Proteros Biostructures GmbH, Germany; settings: for IC50: read-out: Apparent IC50
T2 sequence (Q86TI2 whole entry): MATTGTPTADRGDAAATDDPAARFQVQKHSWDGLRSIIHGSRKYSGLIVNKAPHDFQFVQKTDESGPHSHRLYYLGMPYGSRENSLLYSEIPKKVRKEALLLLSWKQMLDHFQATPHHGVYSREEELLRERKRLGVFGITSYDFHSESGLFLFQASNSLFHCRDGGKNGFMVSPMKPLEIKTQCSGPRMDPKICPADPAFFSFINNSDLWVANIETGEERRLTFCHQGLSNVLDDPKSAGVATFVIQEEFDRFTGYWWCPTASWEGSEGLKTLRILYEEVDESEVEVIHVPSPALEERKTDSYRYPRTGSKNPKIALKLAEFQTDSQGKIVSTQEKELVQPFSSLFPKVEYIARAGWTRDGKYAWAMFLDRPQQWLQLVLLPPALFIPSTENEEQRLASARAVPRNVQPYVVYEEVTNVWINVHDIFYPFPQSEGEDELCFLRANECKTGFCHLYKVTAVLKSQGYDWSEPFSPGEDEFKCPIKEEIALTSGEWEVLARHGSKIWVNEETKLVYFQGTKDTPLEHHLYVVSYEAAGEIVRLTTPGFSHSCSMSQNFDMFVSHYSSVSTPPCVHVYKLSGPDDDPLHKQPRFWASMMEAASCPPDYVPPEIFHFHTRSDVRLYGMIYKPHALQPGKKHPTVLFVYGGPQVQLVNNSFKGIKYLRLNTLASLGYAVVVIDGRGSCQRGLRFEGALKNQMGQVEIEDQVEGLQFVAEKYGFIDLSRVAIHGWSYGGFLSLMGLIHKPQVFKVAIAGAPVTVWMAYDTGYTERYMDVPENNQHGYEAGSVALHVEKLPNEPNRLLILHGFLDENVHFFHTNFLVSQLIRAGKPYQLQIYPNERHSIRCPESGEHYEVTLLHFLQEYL
Source text: as §1, §2

DPP9 [2] = molecular target: T2, DPP9; assay: In vitro gel-based competitive ABPP in HEK293 cell lysates, 100 kDa band; design: endogenous in cells; host or cells: HEK293 (Cytion, Germany, 300192); settings: HEK293 lysate, 10 µM competitor, 30 min; for Competition of ≡FP labeling (in words): 2 µM ≡FP
Protocol: Therefore, HEK293 cell lysates were pre‐incubated with 10 µM 5 or DMSO vehicle control for 30 min, followed by a labeling reaction with 2 µM of the serine hydrolase‐specific ABP fluorophosphonate‐alkyne (≡FP) or 10 µM 2 (Figure 2B). […] Of note, this band has been previously assigned as DPP9 (DPP8 would migrate in the same range, but is only expressed at low levels in the used cell line and therefore cannot be visualized by this approach).^[ [36] ^, [37] ^] […] Again, this labeling was observed regardless of prior irradiation. Subsequently, the competitive labeling experiment was conducted by pre‐incubation with compound 5, with or without subsequent irradiation.
Figure 2 Competitive ABPP with photo‐cleavable inhibitor 5 in HEK293 cells. A) Schematic overview of a competitive ABPP experiment. A proteome is pre‐incubated with a competitor, followed by a labeling reaction with an activity‐based probe (ABP). In the case of a photocaged inhibitor, the active compound can be released via irradiation. Target proteins of the competitor cannot be bound by the ABP, resulting in an absence of the respective protein band in‐gel analysis. Created in BioRender. Najdzion, M. (2025) https://BioRender.com/84zn8cb B) Gel‐based competitive ABPP experiment in HEK293 cell lysates with the broadband serine hydrolase ABP ≡FP or the DPP8/9‐directed ABP 2 and the photocaged inhibitor 5, at the indicated concentrations, after or without prior irradiation with green light for 5 min. The corresponding pre‐incubation time for 5 was 30 min. C) Corresponding in situ competitive ABPP experiment in HEK293 cell culture, again with 10 µM 2 for 1 h. Labeling was competed by pre‐incubation with 20 µM 5 for 1 h, followed by an activation of the photocaged inhibitor by irradiation for 5 min with a green LED lamp, if applicable. D) Green light treatment has no cytotoxic effect. HEK293 cells were irradiated with a green LED lamp in the presence of 0.5% DMSO for 5 min (‘light’), and cell viability was measured after 24 h. […] Data was normalized to the non‐irradiated control (‘dark’). E) Green light treatment leads to the release of the active DPP8/9 inhibitor. HEK293 cells were incubated with compound 1 or 5 for 24 h. For both compounds, cell viability was measured under ‘dark’ (not irradiated) and ‘light’ (irradiated for 5 min with a green LED lamp after the addition of the inhibitor) conditions. […] Data was normalized to the non‐irradiated DMSO control.
For in vitro ABPP, cell lysates were generated from HEK293 cells grown on a 10 cm tissue dish. […] The cell lysates were cleared via centrifugation (30 min, 20,817 × g, 4 °C), and protein concentration was determined with a modified Bradford assay using Roti‐Nanoquant (Carl Roth, Germany). […]

## CCCCCc1ccc(SCCP(=O)(OCC)N2CCC[C@H](NC(=O)OCC3=C4C(C)=CC(C)=[N+]4[B-](C)(C)n4c(C)cc(C)c43)C2=O)cc1 (stereo partly drawn) [Compound 5]
Human DPP8
  Dark/light ratio of apparent IC50: 30
Human DPP8; apparent IC50 dark vs light
  Increase in potency after green light-mediated photorelease: about 30 fold
Human DPP8; dark (without green light irradiation)
  IC50: 1100 nM
Human DPP8; light (5 min green LED, 520-530 nm)
  IC50: 37 ± 3 nM
DPP9 [1]
  Dark/light ratio of apparent IC50: 40
DPP9 [1]; apparent IC50 dark vs light
  Increase in potency after green light-mediated photorelease: ~40 fold
DPP9 [1]; dark (without green light irradiation), 45 min pre-incubation
  IC50: 24700 nM
DPP9 [1]; light (5 min green LED, 520-530 nm), 45 min pre-incubation
  IC50: 621 ± 54 nM
DPP9 [1]; without irradiation
  IC50: 24700 ± 6800 nM
DPP9 [2]; green light 5 min, 100 kDa band assigned as DPP9
  Competition of ≡FP labeling (in words): labeling competition of one specific band
DPP9 [2]; without irradiation
  Competition of ≡FP labeling (in words): did not result in any competition
DPP9 [2]; 10 µM 2, green light 5 min
  Competition of DPP9 labeling by ABP 2 (in words): efficient DPP9 labeling competition
